RP-LC retention time data for 80 compounds are collected here from the METLIN SMRT retention time set (Domingo-Almenara et al. 2019).

Molecules are shown by their SMILES.

The nature of the series: gradient 5% acetonitrile 3 min, to 50% in 2 min, to 85% in 15 min, held 3 min, 100 µL/min. As to conditions: column: Zorbax Extend-C18 2.1 x 50 mm; eluents: water / acetonitrile, 0.1% formic acid. Summed up: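 A Zorbax Extend-C18 column (2.1 × 50 mm, 1.8 μm) run at 100 μL/min with water and acetonitrile, both containing 0.1% formic acid, separated mixtures of ~100 pure standards. The HPLC was coupled to a quadrupole time-of-flight mass spectrometer operated in positive and negative ionization mode, with dead and dwell volumes of 40 μL and 900 μL. Each retention time was taken from a computationally picked adduct peak that was then manually inspected.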
On to `O=C(c1ccsc1)N1CCC2(CC1)CC(N1CCOCC1)CCO2` (stereo not given), for which the RP-LC retention time turned out to be 557 s.

Compound `CCC(=O)Nc1ccc2c(c1)nc(CN1CCN(S(C)(=O)=O)CC1)n2CC` gave an RP-LC retention time of 586 s.

`COc1ccccc1NC(=O)C1CCCN(c2nc3ccccc3nc2OC)C1` (stereo not given) gave an RP-LC retention time of 1160 s.

`Cn1nc(-c2nc(C3CC3)no2)c2c1CCN(C(=O)c1cccnc1)C2` registered an RP-LC retention time of 642 s.

Compound `Cc1ccc(C)c(CNC(=O)Cc2csc3nc(-c4ccc(C)c(C)c4)cn23)c1` displayed an RP-LC retention time of 930 s.

Compound `O=C(NCc1cccs1)c1c(O)c2cccnc2n(Cc2ccccc2)c1=O` displayed an RP-LC retention time of 1310 s.

Consider `CCCNC(=O)NCc1nc(-c2ccc(Cl)cc2)no1`, for which the RP-LC retention time stood at 806 s.

Compound `CCOC(=O)c1c(S(=O)(=O)N2CCC(C(=O)Nc3ccc(F)c(F)c3)CC2)c(C)n(C)c1C` showed an RP-LC retention time of 890 s.

As to `Cn1cc(C(=O)N2CC(c3nc(CCOCC4CCOCC4)no3)C2)cn1`, the RP-LC retention time was determined as 663 s.

As to `CCCNC(=O)C1CCCN(c2ccc(SCC(=O)Nc3ccc(OCC)cc3)nn2)C1` (stereo not given), the RP-LC retention time worked out at 595 s.

Compound `Cc1cccc(N2CCN(c3ccc4cc(S(=O)(=O)N5CCCCC5)ccc4n3)CC2)c1C` yielded an RP-LC retention time of 1320 s.

As to `COc1ccc(C2CC(=O)c3c([nH]c(C(=O)OC4CCCC4C)c3C)C2)cc1OC` (stereo not given), the RP-LC retention time is 1050 s.

As for `CC(C)Nc1nc(-c2ccc([N+](=O)[O-])cc2)nc2ccccc12`, the RP-LC retention time is 751 s.

Regarding `O=C(Nc1nnc(C2CC(=O)N(c3ccccc3)C2)o1)c1ccc(C(F)(F)F)cc1` (stereo not given), the RP-LC retention time is 793 s.

As to `CCCCn1c(CN(C)C(=O)c2ccco2)nc2ccccc21`, the RP-LC retention time came to 648 s.

As to `CN1CCN(C(=O)O[C@H]2c3nccnc3C(=O)N2c2ccc(Cl)cn2)CC1`, the RP-LC retention time was 660 s.

With `CC1CCCCN1CCCNC(=O)C1=Cc2cc(Br)ccc2OC1` (stereo not given), the RP-LC retention time was determined as 696 s.

As for `CCC(=O)Nc1ccc(-n2cnc(C(=O)NC(C)c3ccccc3)c2)nc1` (stereo not given), the RP-LC retention time was determined as 722 s.

Regarding `c1ccc(-n2ncc3cccnc32)cc1`, the RP-LC retention time turned out to be 624 s.

For `O=C(NCc1csc(-c2cccs2)n1)C1CCN(C(=O)c2c(F)cccc2F)CC1`, the RP-LC retention time is 769 s.

Take `CCCn1cc(C(=O)Nc2ccc3c(c2)OCO3)c(=O)c2ccc(C)nc21`: the RP-LC retention time was 1100 s.

In the case of `COCCNC(=O)c1nn(-c2ccc(Cl)cc2)nc1CO`, the RP-LC retention time stood at 792 s.

`COc1ccc(-c2nc(Nc3ccccn3)sc2C)cc1`: the RP-LC retention time worked out at 807 s.

`CSc1cccc(NC(=O)C2CCN(S(=O)(=O)c3ccc(-c4noc(C5CC5)n4)cc3)CC2)c1` yielded an RP-LC retention time of 1100 s.

`Cc1ccccc1Cc1nc(-c2ccc3c(c2)nnn3CCN2CCOCC2)no1` showed an RP-LC retention time of 692 s.

`Cc1cc(C)c(S(=O)(=O)N2CCCC(C(=O)Nc3ccccc3F)C2)c(C)c1` (stereo not given) had an RP-LC retention time of 1090 s.

`NC(=O)C1(c2cccc(C(F)(F)F)c2)CC1` registered an RP-LC retention time of 764 s.

As to `CCOC(=O)Cn1nc2c(-c3nc(-c4ccc(Cl)cc4)no3)cccn2c1=O`, the RP-LC retention time worked out at 958 s.

Compound `O=C(NC1CCCCCCC1)C1CCN(C(=O)c2ccccc2F)CC1` registered an RP-LC retention time of 855 s.

On to `CC(C)c1ccc(S(=O)(=O)N2CCC(C(=O)NCc3csc(-c4cccs4)n3)CC2)cc1`, for which the RP-LC retention time is 1030 s.

The compound `Cc1ccc2c(=O)c3c([nH]c2c1C)CCN(CC(=O)Nc1cc(F)ccc1F)C3` showed an RP-LC retention time of 638 s.

`Cc1cc(=O)n(CC(=O)Nc2ccc(Cl)cc2)c(N2CCC(C)CC2)n1` had an RP-LC retention time of 758 s.

With `CC(C)Sc1ccc(CC(=O)NCC2CCN(C(=O)c3ccccc3F)CC2)cc1`, the RP-LC retention time came out at 833 s.

On to `Cc1ccc(S(=O)(=O)c2cnc3ccc(F)cc3c2N2CCOCC2)cc1C`, for which the RP-LC retention time is 892 s.

Compound `CCC(C)NC(=O)N1CC(n2cc(C(=O)N(C)CCOC)nn2)C1` (stereo not given) had an RP-LC retention time of 620 s.

As to `O=C(N[C@H]1C[C@@H]2C[C@H]1CN2S(=O)(=O)c1cccc2nsnc12)c1ccccc1`, the RP-LC retention time is 722 s.

Regarding `Cc1cc(Cl)ccc1S(=O)(=O)N1CCCC(Cn2cnc3cccnc32)C1` (stereo not given), the RP-LC retention time came out at 853 s.

`CCN(CC)C(=O)Cn1c(CO)nc2ccccc21` showed an RP-LC retention time of 563 s.

For `Cc1cc(=O)n(CC(=O)Nc2cc(Cl)ccc2C)c(N2CCOCC2)n1`, the RP-LC retention time was 736 s.

In turn, `CC1CCN(C(=O)c2ccc(OCC3CCCN(C(=O)C4CCCO4)C3)cc2)CC1` (stereo not given) returned an RP-LC retention time of 829 s.

The compound `O=C(Nc1cc(Cl)cc(Cl)c1)N1CCc2nc[nH]c2C1` had an RP-LC retention time of 642 s.

Consider `O=C(CC1CCCC1)N1[C@H]2CC[C@@H]1c1cnc(-c3ccccc3)nc1C2`, for which the RP-LC retention time came to 1000 s.

In turn, `O=c1n(Cc2ccc(Cl)cc2)nc2ccc(S(=O)(=O)N3CCCCC3)cn12` yielded an RP-LC retention time of 1000 s.

In turn, `CC(C)(C)c1cccc(NC(=O)C2CCc3nc(N4CCOCC4)ncc3C2)c1` (stereo not given) gave an RP-LC retention time of 945 s.

As to `COCCCNC(=O)Cn1c(=O)n(-c2ccc(F)cc2)c2ncccc21`, the RP-LC retention time turned out to be 1390 s.

In turn, `O=C(CSc1nc(-c2ccccc2Cl)ns1)Nc1nccs1` came in with an RP-LC retention time of 818 s.

The compound `CCCNC(=O)C1CCCN(c2nc3ncn(CC(=O)Nc4ccc(OCC)cc4)c(=O)c3s2)C1` (stereo not given) came in with an RP-LC retention time of 720 s.

As to `Clc1ccc(OCc2nn3c(CSc4ccccc4)nnc3s2)cc1`, the RP-LC retention time turned out to be 1040 s.

For the compound `CCC(C(=O)Nc1c(-c2ccc(OC)cc2)nc2cc(C)ccn12)c1ccccc1` (stereo not given), the RP-LC retention time came to 713 s.

`CCNc1cc(N2CCCC(CCC(=O)NCCN3CCCCCC3)C2)ncn1` (stereo not given): the RP-LC retention time was 550 s.

Consider `COc1cc2nc(C(=O)N3CCCCC3)cc(Nc3ccc(Br)cc3)c2cc1OC`, for which the RP-LC retention time was found to be 743 s.

As for `COc1cc(NC(=O)c2ccc3cccc(O)c3n2)cc(OC)c1OC`, the RP-LC retention time stood at 880 s.

In turn, `CCCNc1cc(N2CCC(CCC(=O)NCC(C)C)CC2)ncn1` had an RP-LC retention time of 642 s.

`COc1ccc(NC(=O)C2CCN(S(=O)(=O)c3c(C)nn(-c4ccccc4)c3C)CC2)c(OC)c1` gave an RP-LC retention time of 940 s.

As for `CCNC(=O)N1CCOc2cc(C)ccc21`, the RP-LC retention time came to 768 s.

With `Cc1cnc2c(c1SCC(=O)N(C)c1ccccc1)c(=O)n(C)c(=O)n2C`, the RP-LC retention time was determined as 769 s.

Take `Cc1ccccc1OCc1ccc(-c2nc(C#N)c(NCCCN(C)C)o2)o1`: the RP-LC retention time was 727 s.

`CCn1cc2c3c(cccc31)CN(C(=O)Nc1cccc(C)c1)CC2` returned an RP-LC retention time of 1050 s.

`CC12CC(NC(=O)N1c1cccc(C(=O)Nc3ccc4c(c3)OCCO4)c1)c1ccccc1O2` (stereo not given): the RP-LC retention time came to 830 s.

In the case of `CCn1cc(CC(=O)NCCC(C)C)c2cccnc21`, the RP-LC retention time worked out at 706 s.

`O=C(NCc1nc(-c2ccc(N3CCCC3)cc2)no1)c1cccs1` returned an RP-LC retention time of 962 s.

In the case of `O=C1NCCCn2cc(S(=O)(=O)N3CCN(c4cccc(C(F)(F)F)c4)CC3)cc21`, the RP-LC retention time stood at 830 s.

As for `Cc1ccc(C)c(NC(=O)Nc2cccc(-c3cn4cccnc4n3)c2)c1`, the RP-LC retention time came out at 696 s.

Turning to `Cc1nc(S(=O)(=O)N2CCc3c(c(-c4nnc(-c5ccc(F)cc5)o4)nn3C)C2)cn1C`, the RP-LC retention time turned out to be 703 s.

`Cc1cccc(Nc2cc(C)nc3ccnn23)c1` came in with an RP-LC retention time of 613 s.

For the compound `COc1ccc(NS(=O)(=O)c2ccc3c(c2)C(=O)N(C)c2ncccc2O3)c(C)c1`, the RP-LC retention time is 898 s.

As for `CCOC(=O)C1CCN(c2cc3c(cc2NC(=O)CC2CCCCC2)n(C)c(=O)c(=O)n3C)CC1`, the RP-LC retention time is 981 s.

Turning to `Cc1ccc(CC(=O)Nc2ccc3nc(N4CCN(CC(=O)N(C)C)CC4)cc(C(=O)O)c3c2)cc1`, the RP-LC retention time amounted to 604 s.

Regarding `CC1(C)CC(NC(=O)c2cccc(Br)c2)CC(C)(C)N1`, the RP-LC retention time was determined as 620 s.

The compound `Cc1cc(C)cc(NC(=O)C2CCN(S(=O)(=O)c3cn(C)cn3)CC2)c1` yielded an RP-LC retention time of 732 s.

Consider `N#Cc1cnc2ccc(F)cc2c1N1CCC(C(=O)Nc2ccc3c(c2)OCCO3)CC1`, for which the RP-LC retention time is 804 s.

Compound `CC(C)CC(=O)NC1CCN(c2ccc(F)cc2)C1=O` (stereo not given) displayed an RP-LC retention time of 742 s.

Take `CCn1ccc2cc(S(=O)(=O)N3CCC(C(=O)NCCCN4CCCC(C)C4)CC3)ccc21` (stereo not given): the RP-LC retention time worked out at 676 s.

For `CCN1C(=O)CCc2cc(NC(=O)Cc3cccc(OC)c3)ccc21`, the RP-LC retention time turned out to be 757 s.

In the case of `Cc1ccc(-n2nnc(-c3noc(C)n3)c2C)cc1`, the RP-LC retention time amounted to 836 s.

In turn, `COCc1nc2ccccc2n1CC(=O)NCC1CCCO1` (stereo not given) came in with an RP-LC retention time of 532 s.

Compound `COc1ccccc1C(=O)N1CCCC1c1c(C)noc1C` (stereo not given) had an RP-LC retention time of 693 s.

Compound `O=c1ccc(-c2ccncc2)nn1CCCNS(=O)(=O)/C=C/c1ccccc1` yielded an RP-LC retention time of 582 s.

`CCOc1ccc(-c2noc(Cn3c(=O)n(CC4CCCO4)c(=O)c4ccccc43)n2)cc1` (stereo not given) showed an RP-LC retention time of 1050 s.

`CC(C)NC(=O)N1[C@H]2CC[C@@H]1c1cnc(-c3ccc(F)cc3)nc1C2` returned an RP-LC retention time of 839 s.
